According to US20130164386A1, “Targeting the Alpha3 Subnit of Na+-K+-ATPase for the Treatment of Cough with Sulfenamides” (THE JOHNS HOPKINS UNIVERSITY, priority 2010, published 2013):
Where two headings read alike, the source gives them in different places.

How the values were obtained:
[1] = test system: Na+-K+ ATPase activity of cough receptor terminations; experiment: intravital FM2-10 styryl dye labeling of cough receptor terminals in tracheal mucosa; parameters: species or system guinea pig; settings: data not shown
Text: FIGS. 1A-1D show: (A) selective immunohistochemical labeling of cough receptor terminations in the guinea pig tracheal mucosa with antisera to the alpha3 subunit of Na+K+-ATPase; (B) the cough receptor terminals innerating the tracheal mucosa also are brilliantly and selectively labeled intravitally by the styryl dye FM2-10. This staining method depends upon active Na+-K+ ATPase.
Mazzone, S. B, et al., “Selective Expression of a Sodium Pump Isozyme by Cough Receptors and Evidence for Its Essential Role in Regulating Cough,” J. Neurosci., 2009, 29(43):13662-13671. Thus, the cough receptors uniquely express the alpha3 subunit of the sodium pump in their peripheral terminals, and these terminals display high basal sodium pump activity based on FM2-10 fluorescence.
Referring now to FIGS. 1A-1D, it is shown that: (A) selective immunohistochemical labeling of cough receptor terminations in the guinea pig tracheal mucosa with antisera to the alpha3 subunit of Na+K+-ATPase; (B) the cough receptor terminals innerating the tracheal mucosa also are brilliantly and selectively labeled intravitally by the styryl dye FM2-10. Styryl dyes are known to produce fluorescence intensity proportional to Na+-K+-ATPase activity. Consistent with this notion, FM2-10 labeling of the cough receptor terminations is prevented by the sodium pump inhibitor ouabain (not shown). […]

[2] = test system: citric acid evoked coughing; settings: alpha3-selective concentration; cited from earlier work
cough receptors = settings: in vitro; alpha3-selective concentration; cited from earlier work
[3] = test system: Na+-K+ ATPase activity of cough receptor terminations; settings: Mazzone et al., J. Neurosci. 2009; cited from earlier work
[4] = test system: citric acid evoked coughing; type: in vivo, guinea pig; settings: anesthetized guinea pigs
[5] = test system: citric acid evoked coughing; experiment: citric acid evoked coughing in conscious (unanesthetized) guinea pigs; type: in vivo, guinea pig; settings: 1 mg/mL, nebulized, delivered as an aerosol to the airways, listed as acid-activated omeprazole

Row | SMILES | FM2-10 labeling of the cough receptor terminations [1] | coughing evoked in vivo [2] | high frequency action potential patterning in cough receptors (cough receptors) | FM2-10 labeling of the cough receptors [3] | blood pressure ([4]; dose 30 μg/kg lv) | citric acid evoked coughing ([4]; dose 30 μg/kg lv) | heart rate ([4]; dose 30 μg/kg lv) | respiratory pattern at eupnea ([4]; dose 30 μg/kg lv) | citric acid evoked coughing [5] | citric acid evoked coughing ([4]; topically applied to the tracheal mucosa, 0.1 mM, listed as acid activated omeprazole)
1 | C[C@@H]1O[C@@H](O[C@H]2C[C@@H](O)[C@]3(CO)[C@H]4[C@H](O)C[C@]5(C)[C@@H](C6=CC(=O)OC6)CC[C@]5(O)[C@@H]4CC[C@]3(O)C2)[C@H](O)[C@H](O)[C@H]1O [ouabain] | prevented | reduced substantially | reduced substantially | prevented | no effect | nearly abolished | no effect | no effect |  | 
2 | COc1ccc2[nH]c([S+]([O-])Cc3ncc(C)c(OC)c3C)nc2c1 (stereo not shown) [omeprazole] |  |  |  |  |  |  |  |  | markedly inhibits | nearly abolished
